# Data published in patent publication US4614746A, “5-fluorobenzonitrile derivatives for increasing the lean meat to fat ratio and/or enhancing the growth rate of warm-blooded animals” (American Cyanamid Company, priority 1985, dated 1986).
# Key:
# [1] = in words; cited from earlier work
# [2] = biological target: T1, beta-1 adrenergic receptor (Meleagris gallopavo, UniProt P07700); experiment: Beta-1 adrenergic activity, (H3) dihydroalprenolol radioligand binding to erythrocyte membranes; set-up: species or system turkey and rat; conditions: (H3) DHA, room temperature (23° C.), one hour; read-out: β1 K-50 (concentration required to displace 50% radioactive ligand from binding sites of beta adrenergic receptors)
# T1 construct: Beta-1 adrenergic receptor membranes are isolated from turkey and rat erythrocytes; from tissue; host or cells: erythrocyte membranes from freshly drawn turkey blood (rat blood also given)
# Procedure: Beta-1 adrenergic activity of experimental compounds is identified by radioactive ligand-binding studies by using beta adrenergic receptor membranes and adrenergic antagonist (H3) dihydroalprenolol (DHA). Binding of (H3) DHA to membrane fractions is assayed by filtration on glass fiber filters. Specific binding is defined as total radioactivity bound minus nonspecific bound radioactivity, i.e., binding in the presence of 100 μM nonradioactive DHA. Results are expressed as the concentrations of the compound required to displace 50% radioactive ligand from binding of beta adrenergic receptors (K-50).
# In these tests, beta adrenergic receptor membranes are incubated with radioactive dihydroalprenolol (H3 DHA) and experimental compounds. The bound radio-ligand is separated by filtration on glass fiber filters and counted by scintillation counter.
# Radioactive ligand, H3 dihydroalprenolol (DHA) and aquasol are purchased from New England Nuclear Corporation, DMSO is supplied by J. T. Baker Company, and all other chemicals are obtained from Sigma Chemical Company.
# Beta-1 adrenergic receptor membranes are isolated from turkey and rat erythrocytes respectively using the procedures of:
# Freshly drawn heparinized whole blood from turkeys and rats is centrifuged for five minutes (4×500 g). The plasma is withdrawn; the remaining erythrocytes are suspended in 150 mM sodium chloride solutions and centrifuged. The cells are resuspended and centrifuged twice more. The cells are hemolyzed in 10 volume of cold distilled water containing 2 mM dithiothreitol, 100 μM phenylmethyl sulfonyl fluoride, 5 μg/mL leupeptin, 200 μg/mL bacitacin, 0.1% bovine serum albumin, and 10 units/mL aprotonin, and centrifuged at 3000×g for five minutes. The bottom gelatin layer is discarded. The top layer is suspended and centrifuged five times at 3000×g and resuspended in tris buffer (145 mM NaCl, 1 mM ethylene glycol-bis(β-aminoethyl ether) N,N,N,N, tetraacetic acid, 2 mM MgCl2, 10 mM tris, and 10% glycerol, pH 7.4). The resuspended membranes are further purified with differential centrifugation by using sucrose albumin cushion, and subsequently stored in small aliquots at -70° C. The protein concentration of receptor membranes is determined by the biuret method.
# To duplicate incubation, tubes are added 200 μl suspended membranes (200 μg protein), 25 μl of compound in solution or buffer and 25 μl (H3) dihydroalprenolol (200,000 CPM). Tubes were incubated at room temperature (23° C.) for an hour and then filtered rapidly under vacuum through Whatman GF/B filters. The filters are rinsed three times with 5 mL of cold buffer (145 mM NaCl, 1 mM ethylenediaminetetraacetic acid, and 10 mM tris, pH 7.4) and subsequently counted by liquid scintillation counter in 10 mL of aquasol. Specific binding of H3 DHA is defined as the excess over blank containing 100 μM nonradioactive DHA. Six serial dilutions of each compound are tested.
# Beta adrenergic activity is inversely related to K-50 (the concentrations of the compound required to displace 50% radioactive ligand from binding sites of beta adrenergic receptors, i.e., 50% binding) value.
# T1 sequence (P07700 whole entry): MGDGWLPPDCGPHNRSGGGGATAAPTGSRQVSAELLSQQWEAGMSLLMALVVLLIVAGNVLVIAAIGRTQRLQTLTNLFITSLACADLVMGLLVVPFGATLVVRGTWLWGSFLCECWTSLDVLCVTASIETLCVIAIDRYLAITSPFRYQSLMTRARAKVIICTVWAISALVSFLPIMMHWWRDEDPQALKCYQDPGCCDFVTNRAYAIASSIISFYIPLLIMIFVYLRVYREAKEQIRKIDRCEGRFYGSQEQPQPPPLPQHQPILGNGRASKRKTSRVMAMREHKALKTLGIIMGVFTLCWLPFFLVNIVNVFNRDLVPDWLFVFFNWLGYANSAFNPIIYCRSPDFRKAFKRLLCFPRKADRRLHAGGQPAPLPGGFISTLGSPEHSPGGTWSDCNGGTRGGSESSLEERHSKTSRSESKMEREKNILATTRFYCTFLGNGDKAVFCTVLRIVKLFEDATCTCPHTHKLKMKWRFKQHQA
SMILES,bronchodilator activity [1],heart stimulant activity [1],IC50 [2] [µM]
CC(C)(C)NCC(O)c1cc(Cl)c(N)c(Cl)c1 (stereo not shown) [Clenbuterol],very effective bronchodilator,potent heart,
CCCC(C)NCC(O)c1cc(F)cc(C#N)c1 (stereo not shown) [drawing 19],,,2.2
CC(C)N(CC(O)c1cc(F)cc(C#N)c1)C(C)C (stereo not shown) [drawing 20],,,2.95
CCNCC(O)c1cc(F)cc(C#N)c1 (stereo not shown) [drawing 21],,,3.04
CC(C)NCC(O)c1cc(F)cc(C#N)c1 (stereo not shown) [drawing 22],,,12.3
CC(C)(C)NCC(O)c1cc(F)cc(C#N)c1 (stereo not shown) [drawing 23],,,16.6
